Experimental data reported in patent US10676514B2, “CDCA1-derived peptide and vaccine containing same” (ONCOTHERAPY SCIENCE, INC., priority 2014, dated 2020).
Entries after “also recorded” stand apart in the source; their conditions may differ.

Tests used:
Type in all cases: cell-based, human
[1] = test system: peptide-pulsed C1R-A33 cells; experiment: IFN-gamma ELISPOT assay of peptide-induced CTLs (HLA-A*3303); details: CTLs induced from HLA-A*3303-positive donors, peptide-pulsed C1R-A33 vs control
Description: (§1) Monocyte-derived dendritic cells (DCs) were used as the antigen-presenting cell to induce a cytotoxic T lymphocyte (CTL) response against peptides presented on human leukocyte antigens (HLAs). As described in the other sections, DCs were generated in vitro (Nakahara S et al., Cancer Res 2003, 63(14): 4112-8). Specifically, peripheral-blood mononuclear cells isolated from healthy volunteers (HLA-A*3303-positive) with the Ficoll-Paque plus solution (Pharmacia) were separated by attaching to plastic tissue culture dishes (Becton Dickinson) and concentrated as a monocyte fraction. The monocyte-concentrated population was cultured in the presence of 1000 IU/ml granulocyte macrophage colony-stimulating factor (R&D System) and 1000 IU/ml interleukin(IL)-4 (R&D System) in an AIM-V medium (Invitrogen) containing 2% heat-inactivated autologous serum (AS). After seven days of culturing, the cytokine-induced DCs were pulsed with 20 micro-g/ml each of the synthesized peptides in an AIM-V medium at 37 degrees C. for three hours in the presence of 3 micro-g/ml beta 2-microglobulin. The generated cells appeared to express on their cell surface DC-associated molecules such as CD80, CD83, CD86 and HLA class II (data not shown). Next, these peptide-pulsed DCs were inactivated by X-ray irradiation (20 Gy), and mixed in a 1:20 ratio with autologous CD8^+ T cells obtained by positive selection using the CD8 Positive Isolation Kit (Dynal). These culture products were seeded in a 48-well plate (Corning). Each well was made to contain 1.5×10^4 peptide-pulsed DCs, 3×10^5 CD8^+ T cells and 10 ng/ml IL-7 (R&D System) in 0.5 ml of the AIM-V/2% AS medium. Three days later, these culture products were added with a final concentration of 20 IU/ml IL-2 (CHIRON). On day 7 and day 14, T cells were further stimulated with peptide-pulsed autologous DCs. The DCs were prepared every time by the same method as above. On day 21, after the third peptide stimulation, CTLs were examined against the peptide-pulsed CIR-A33 cell by a human interferon (IFN)-gamma enzyme-linked immunospot (ELISPOT) assay (Tanaka H et al., Br J Cancer 2001, 84(1): 94-9; Umano Y et al., Br J Cancer 2001, 84(8): 1052-7; Uchida N et al., Clin Cancer Res 2004, 10(24): 8577-86; Suda T et al., Cancer Sci 2006, 97(5): 411-9; Watanabe T et al., Cancer Sci 2005, 96(8): 498-506).
(§2) Specifically, peptide-pulsed C1R-A33 (1×10^4 cells/well) was prepared as the stimulator cell. The induced CTLs, i.e., CTL lines and CTL clones, were used as the responder cell. The IFN-gamma ELISPOT assay and IFN-gamma ELISA were performed according to the manufacturer's manual.

[2] = test system: peptide-pulsed C1R-A33; experiment: IFN-gamma ELISA of CTL lines and CTL clones (HLA-A*3303); details: for IFN-gamma production of CTL lines: peptide-pulsed vs non-pulsed target cells, HLA-A*3303
Experimental: (§3) CTLs were propagated in culture using methods similar to those disclosed by Riddell et al. (Walter E A et al., N Engl J Med 1995, 333(16): 1038-44; Riddell S R et al., Nat Med 1996, 2(2): 216-23). The CTLs were co-cultured in a total of 25 ml AIM-V medium containing 5% AS (AIM-V/5% AS) and 40 ng/ml anti-CD3 antibody with two types of Mitomycin C-treated human B lymphoblastoid cell lines at 5×10^6 cells/flask. One day after beginning of the culturing, 120 IU/ml IL-2 was added to the culture. On days 5, 8 and 11, a fresh AIM-V/5% AS medium containing 30 IU/ml IL-2 was added to the culture (Tanaka H et al., Br J Cancer 2001, 84(1): 94-9; Umano Y et al., Br J Cancer 2001, 84(8): 1052-7; Uchida N et al., Clin Cancer Res 2004, 10(24): 8577-86; Suda T et al., Cancer Sci 2006, 97(5): 411-9; Watanabe T et al., Cancer Sci 2005, 96(8): 498-506).
(§4) Dilution of CTLs was carried out to make 0.3, 1 and 3 cells/well in 96 round-bottomed microtiter plates (Nalge Nunc International). The CTLs were co-cultured with two types of Mitomycin C-treated human B lymphoblastoid cell lines at 1×10^4 cells/well in a total of 150 micro-l/well AIM-V/5% AS medium with 30 ng/ml anti-CD3 antibody and 125 IU/ml IL-2. Ten days later, IL-2 was added to the medium at 50 micro-l/well to reach a final concentration of 125 IU/ml. On day 14, the CTL activity was tested, and the CTL clones were propagated using the same method as described above (Uchida N et al., Clin Cancer Res 2004, 10(24): 8577-86; Suda T et al., Cancer Sci 2006, 97(5): 411-9; Watanabe T et al., Cancer Sci 2005, 96(8): 498-506).
as §2

[3] = test system: peptide-pulsed C1R-A11 cells; experiment: IFN-gamma ELISPOT assay of peptide-induced CTLs (HLA-A*1101); details: CTLs induced from HLA-A*1101-positive donors, peptide-pulsed C1R-A11 vs control
Description: as §1, with “(HLA-A*1101-positive)” for “(HLA-A*3303-positive)”, “C1R-A11 cells” for “CIR-A33 cell”
(§5) Specifically, peptide-pulsed C1R-A11 (1×10^4 cells/well) was prepared as the stimulator cell. The induced CTLs, i.e., CTL lines and CTL clones, were used as the responder cell. The IFN-gamma ELISPOT assay and IFN-gamma ELISA were performed according to the manufacturer's manual.

[4] = test system: peptide-pulsed C1R-A11; experiment: IFN-gamma ELISA of CTL lines and CTL clones (HLA-A*1101); details: for IFN-gamma production of CTL lines: peptide-pulsed vs non-pulsed target cells, HLA-A*1101
Experimental: as §3, §4, §5

| Sequence | peptide-specific CTL activity (IFN-gamma production) [1] | IFN-gamma production of CTL lines [2] | other results |
| --- | --- | --- | --- |
| DILCPKAKR (a peptide derived from CDCA1) [SEQ ID NO: 60] | potent IFN-gamma production | – | – |
| DTVQKLKNAR (a peptide derived from CDCA1) [SEQ ID NO: 69] | potent IFN-gamma production | potent IFN-gamma production | – |
| ETADILCPK (a peptide derived from CDCA1) [SEQ ID NO: 5] | potent IFN-gamma production | – | peptide-specific CTL activity (IFN-gamma production) ([3]; listed as CDCA1-A11-9-105): potent IFN-gamma production; also recorded: significant specific CTL activity; IFN-gamma production of CTL clones ([4]; CTL clones by limiting dilution, peptide-pulsed C1R-A11, listed as CDCA1-A11-9-105): Potent IFN-gamma production; IFN-gamma production of CTL lines [4]: potent IFN-gamma production |
| GIINFIHFR (a peptide derived from CDCA1) [SEQ ID NO: 3] | potent IFN-gamma production | potent IFN-gamma production | peptide-specific CTL activity (IFN-gamma production) ([3]; listed as CDCA1-A11-9-123): potent IFN-gamma production; also recorded: significant specific CTL activity; IFN-gamma production of CTL clones ([2]; CTL clones by limiting dilution, peptide-pulsed C1R-A33, listed as CDCA1-A33-9-123): Potent IFN-gamma production; IFN-gamma production of CTL lines [4]: potent IFN-gamma production |
| NVAEIVIHIR (a peptide derived from CDCA1) [SEQ ID NO: 67] | potent IFN-gamma production | potent IFN-gamma production | – |
| SGIINFIHFR (a peptide derived from CDCA1) [SEQ ID NO: 68] | – | – | peptide-specific CTL activity (IFN-gamma production) ([1]; listed as CDCA1-A33-10-122): no specific IFN-gamma production; also recorded: specific IFN-gamma production was not observed |
| TVQKLKNAR (a peptide derived from CDCA1) [SEQ ID NO: 28] | potent IFN-gamma production | – | – |
